Experimental data taken from US20240270793A1, “COMPOSITIONS” (UNIVERSITY OF SOUTHAMPTON, priority 2020, published 2024).
One block for each molecule: values may come before it. Square brackets hold non-standard residues; d marks the D form. Peptide text beside a SMILES is read from it. Phe(4-I) = N[C@@H](Cc1ccc(I)cc1)C(=O)O

Assays:
[1] = tested on: 1α PAS-B mutants C255A, C334A or C337A; experiment: MST binding to 1α PAS-B cysteine mutants; parameters: species or system human; conditions: mutations C255A
Text: The potency imparted by the thiol motif raised the possibility of the interaction being disulfide-mediated. To counter this, all assays thus far had been performed with excess reducing agent tris(2-carboxyethyl)phosphine (TCEP) present in the buffers. Nonetheless the possibility was still considered due to the importance of the thiol moiety. As the HIF-α PAS-B domain contains multiple cysteines in internal cavities there remained the potential for disulfide bond formation within a solvent and TCEP-inaccessible region of the protein-peptide complex. Three 1α PAS-B mutants were therefore prepared with mutations C255A, C334A or C337A and the activity of the peptide CRLIIF [SEQ ID NO: 6, cyclic peptide #4] again tested by MST. It was anticipated that if a disulfide bond were to form with any of these then there would be a significant loss of binding for the peptide with the corresponding mutant.
(§1) HIF-α proteins were labelled with Monolith NT-647 labelling dye (Nanotemper Technologies GmbH) according to the manufacturer's instructions. MST experiments were performed on a Monolith NT.115 system (Nanotemper Technologies GmbH), in assay buffer containing 50 nM labelled protein, 10% DMSO and 0.05% TWEEN-20. MST measurements were performed using 50% LED and 50% MST power.

HIF-1α PAS-B (238-349) = molecular target: T1, HIF-1α PAS-B (238-349) (Homo sapiens, UniProt Q16665); experiment: MST binding to recombinantly expressed HIF-1α PAS-B domain
T1 construct: human HIF-1α PAS-B (238-349); His tag; made in house; host or cells: E. coli BL21(DE3)-Rosetta, pET28a
Experimental: (§2) Genes encoding for human HIF-1α PAS-B (238-349) and HIF-2α PAS-B (240-350) were each cloned into pET28a vectors at the BamHI and SacI restriction sites. The recombinant plasmids were next transformed into BL21(DE3)-Rosetta chemically competent cells. Cells were grown in LB media at 37° C. to an OD600 of 0.7, after which expression was induced by addition of 0.5 mM IPTG. Following overnight expression at 16° C., cells were pelleted and resuspended in buffer containing 50 mM Tris, 150 mM NaCl, 5% glycerol, 1 mM TCEP, protease inhibitors (Roche) and 20 mM imidazole, pH 8.0. Cells were lysed by sonication, and the supernatant applied to a 1 mL Histrap FF affinity column. The His-tagged protein of interest was eluted with buffer containing 50 mM Tris, 150 mM NaCl, 5% glycerol, 1 mM TCEP and 250 mM imidazole. The protein was then loaded onto a HiLoad 16/600 superdex 75 pg size exclusion column (GE healthcare) equilibrated with assay buffer containing 50 mM Tris, 150 mM NaCl, 5% glycerol and 1 mM TCEP, pH 8.0. Fractions containing the desired protein were flash-frozen and stored at −80° C. prior to use.
as §1

HIF-2α/1α:HIF-1β RTHS = experiment: RTHS secondary screening, drop-spotting regrowth assay; assay type: cell-based; conditions: SICLOPPS-expressed peptide, control CAAAAA
Experimental: A screen for cyclic peptide inhibitors of HIF-2 dimerization was performed using SICLOPPS with a HIF-2 RTHS, using a method described previously.^8,9 (FIG. 1a). A secondary screen was then also conducted on the HIF-1 RTHS to compare selectivity, after which the hits found to inhibit both HIF-2 and HIF-1 were chosen for further review (FIG. 1b). SICLOPPS plasmids that produced a growth advantage in both systems were further screened in an unrelated p6/UEV RTHS to eliminate false positives (FIG. 1b).
It was expected that the similarity between these peptides would translate to a common structure-affinity relationship trend between the three, and that any differences in affinity could be used to inform optimisation efforts. In addition, all three peptides contained a basic side chain (arginine or lysine), which are protonated under physiological conditions, and would therefore aid solubility and potentially provide a useful polar interaction with the proteins themselves. […] The splicing efficiency of peptides from the Ssp intein may vary slightly depending on their sequence, thus resulting in different concentrations of peptide in the cell, which may therefore bias the extent of regrowth response.^10 It was therefore decided that to fully validate these hits, that the binding activity was to be assessed under in vitro assay conditions. […]

HIF-1a = molecular target: T2, HIF-1a (Homo sapiens, UniProt Q16665); experiment: CETSA in MCF-7 cells; assay type: cell-based; conditions: observed at 51° C. and 54° C.
T2 construct: endogenous in cells; host or cells: MCF-7
Experimental: The binding of 4-iodo derivative to HIF-1a was assessed by CETSA in MCF-7 cells. Stabilisation of HIF-1a by this compound can be observed at 51° C. and 54° C.
The binding of 4-iodo derivative to HIF-1a was assessed by CETSA in MCF-7 cells. Stabilisation of HIF-1a by this compound can be observed at 51° C. and 54° C. (FIG. 7).

[2] = tested on: HRE-controlled YFP expression in T-REx-293 cell line; experiment: YFP reporter assay (YFP under control of three HRE copies) in hypoxia; assay type: cell-based; conditions: YFP-reporter HEK cell line, various doses
Experimental: The effect of the cyclic peptides on cellular systems was assessed. A cell-based assay was developed in which the expression of yellow fluorescent protein (YFP) was put under the control of the HRE. A cassette was designed containing the YFP gene preceded by three copies of the HRE sequence. This cassette in turn was stably integrated into the chromosome of T-REX-293 cell line as described previously. […] In these cells, hypoxia results in increased expression of YFP (directly by HIF), so a HIF inhibitor would be expected to reduce the fluorescence of these cells when incubated in hypoxia.
Following in vitro characterisation and optimisation of binding, the effect of the cyclic peptides on cellular systems was assessed. A cell-based assay was developed in which the expression of yellow fluorescent protein (YFP) was put under the control of the HRE. A cassette was designed containing the YFP gene preceded by three copies of the HRE sequence. This cassette in turn was stably integrated into the chromosome of T-REx-293 cell line as described previously.^12
In these cells, hypoxia results in increased expression of YFP (directly by HIF), so a HIF inhibitor would be expected to reduce the fluorescence of these cells when incubated in hypoxia.

cells = experiment: commercial cell-viability assay; assay type: cell-based; conditions: at up to twice the tested doses
Experimental: The 4-iodo derivative was tested in a commercial cell-viability assay, and was not toxic to cells at up to twice the tested doses.
The 4-iodo derivative was tested in a commercial cell-viability assay, and was not toxic to cells at up to twice the tested doses (FIG. 6).

HIF-2α PAS-B (240-350) = molecular target: T3, HIF-2α PAS-B (240-350) (Homo sapiens, UniProt Q99814); experiment: MST binding to recombinantly expressed HIF-2α PAS-B domain; conditions: HIF-2α PAS-B vs HIF-1α PAS-B
T3 construct: HIF-2α PAS-B (240-350); His tag; made in house; host or cells: E. coli BL21(DE3)-Rosetta, pET28a
Experimental: The three lead peptides were next chemically synthesised, using Fmoc-solid phase peptide synthesis methodology, followed by in-solution cyclisation under high dilution conditions.
as §2, with “use. […]” for “use.”

solubility (qualitative) = assay type: physicochemical

T1 sequence (Q16665 238-349): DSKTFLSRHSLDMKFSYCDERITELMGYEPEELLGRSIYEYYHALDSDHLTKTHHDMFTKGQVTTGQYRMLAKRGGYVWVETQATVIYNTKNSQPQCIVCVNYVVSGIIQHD
T3 sequence (Q99814 240-350): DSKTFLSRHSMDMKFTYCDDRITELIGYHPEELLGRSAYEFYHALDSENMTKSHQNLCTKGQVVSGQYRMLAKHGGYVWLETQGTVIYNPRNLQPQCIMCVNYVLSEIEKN
T2 sequence (Q16665 whole entry): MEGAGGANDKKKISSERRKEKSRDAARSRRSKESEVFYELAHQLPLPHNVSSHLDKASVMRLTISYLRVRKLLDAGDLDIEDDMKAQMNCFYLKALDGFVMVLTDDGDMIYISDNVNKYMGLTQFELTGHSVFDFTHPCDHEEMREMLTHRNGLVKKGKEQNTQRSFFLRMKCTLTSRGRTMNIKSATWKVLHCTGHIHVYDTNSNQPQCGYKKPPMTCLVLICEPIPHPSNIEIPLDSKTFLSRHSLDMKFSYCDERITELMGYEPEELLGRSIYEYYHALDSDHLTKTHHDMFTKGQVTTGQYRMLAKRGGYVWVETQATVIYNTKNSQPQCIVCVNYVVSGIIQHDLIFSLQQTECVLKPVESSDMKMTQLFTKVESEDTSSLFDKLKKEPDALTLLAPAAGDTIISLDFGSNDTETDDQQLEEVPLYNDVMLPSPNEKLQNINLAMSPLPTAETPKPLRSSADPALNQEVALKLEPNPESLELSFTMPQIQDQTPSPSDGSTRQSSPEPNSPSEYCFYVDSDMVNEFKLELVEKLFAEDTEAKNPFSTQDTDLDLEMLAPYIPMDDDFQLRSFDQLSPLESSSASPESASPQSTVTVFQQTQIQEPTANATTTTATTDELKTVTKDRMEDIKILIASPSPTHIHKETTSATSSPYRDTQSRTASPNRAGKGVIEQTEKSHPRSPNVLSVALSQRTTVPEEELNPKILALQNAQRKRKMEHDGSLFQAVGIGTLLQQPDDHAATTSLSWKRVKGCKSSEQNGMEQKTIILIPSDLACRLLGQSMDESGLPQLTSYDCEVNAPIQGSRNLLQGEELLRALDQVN

SMILES: CC[C@H](C)[C@@H]1NC(=O)[C@H](CC(C)C)NC(=O)[C@H](CCCNC(=N)N)NC(=O)[C@H](CS)NC(=O)[C@H](Cc2ccccc2)NC(=O)[C@H]([C@@H](C)CC)NC1=O [Cyclic peptide #4, cyclo-cys agr leu ile ile phe] (cyclo(CRLIIF))
- affinity for 1α PAS-B mutants compared to wild-type protein [1]: identical to that of the wild-type protein
- greater affinity than CKLLIF (HIF-1α PAS-B (238-349); MST against 1α PAS-B): about 3 fold

SMILES: CC[C@H](C)[C@@H]1NC(=O)[C@H](C(C)C)NC(=O)[C@H](CCCNC(=N)N)NC(=O)[C@H](CS)NC(=O)[C@H](Cc2ccccc2)NC(=O)[C@H]([C@@H](C)CC)NC1=O [Cyclic peptide #3, cyclo-cys arg val ile ile phe] (cyclo(CRVIIF))
- regrowth response in drop-spotting assay (HIF-2α/1α:HIF-1β RTHS): greatest regrowth response
- selectivity for 1α over 2α (HIF-1α PAS-B (238-349); MST affinities, 1α vs 2α PAS-B): 2 fold

- Stabilisation of HIF-1a by CETSA (HIF-1a): Stabilisation
- improvement in affinity relative to the parent compound (HIF-1α PAS-B (238-349); HIF-1α PAS-B, parent CRLIIF): 4.5 fold
- loss in Kd compared to the 1α isoform (HIF-2α PAS-B (240-350)): 2.2 fold
- water solubility compared with the 4-benzyl compound (solubility (qualitative)): better water solubility
SMILES: CC[C@H](C)[C@@H]1NC(=O)[C@H](CC(C)C)NC(=O)[C@H](CCCNC(=N)N)NC(=O)[C@H](CS)NC(=O)[C@H](Cc2ccc(I)cc2)NC(=O)[C@H]([C@@H](C)CC)NC1=O [Cyclic peptide #18, cyclo-cys agr leuileile (4-I)phe] (cyclo(CRLII[Phe(4-I)]))
- IC50 [2]: ~35 µM
- toxicity to cells in cell-viability assay (cells): not toxic
